# According to BindingDB's records for doi:10.1016/j.bmcl.2011.12.068 (Janssen Pharmaceutica, 2012):
# Columns and labels:
# [1] = molecular target: Transient receptor potential cation channel subfamily A member 1 (Rattus norvegicus, UniProt Q6RI86); experiment: Antagonist activity at rat TRPA1 expressed in HEK293 cells assessed as inhibition of BITC-induced increase in intracellular calcium concentration by Fluo4-AM based fluorometric assay
# [2] = molecular target: Transient receptor potential cation channel subfamily A member 1 (Homo sapiens, UniProt O75762); experiment: Antagonist activity at human TRPA1 expressed in HEK293 cells assessed as inhibition of 5H-dibenzo[b,e]azepine-10-carboxylic acid methyl ester-induced increase in intracellular calcium by Fluo4-AM based fluorometric assay
# Chain of Transient receptor potential cation channel subfamily A member 1 (Homo sapiens, UniProt O75762) (O75762 whole entry): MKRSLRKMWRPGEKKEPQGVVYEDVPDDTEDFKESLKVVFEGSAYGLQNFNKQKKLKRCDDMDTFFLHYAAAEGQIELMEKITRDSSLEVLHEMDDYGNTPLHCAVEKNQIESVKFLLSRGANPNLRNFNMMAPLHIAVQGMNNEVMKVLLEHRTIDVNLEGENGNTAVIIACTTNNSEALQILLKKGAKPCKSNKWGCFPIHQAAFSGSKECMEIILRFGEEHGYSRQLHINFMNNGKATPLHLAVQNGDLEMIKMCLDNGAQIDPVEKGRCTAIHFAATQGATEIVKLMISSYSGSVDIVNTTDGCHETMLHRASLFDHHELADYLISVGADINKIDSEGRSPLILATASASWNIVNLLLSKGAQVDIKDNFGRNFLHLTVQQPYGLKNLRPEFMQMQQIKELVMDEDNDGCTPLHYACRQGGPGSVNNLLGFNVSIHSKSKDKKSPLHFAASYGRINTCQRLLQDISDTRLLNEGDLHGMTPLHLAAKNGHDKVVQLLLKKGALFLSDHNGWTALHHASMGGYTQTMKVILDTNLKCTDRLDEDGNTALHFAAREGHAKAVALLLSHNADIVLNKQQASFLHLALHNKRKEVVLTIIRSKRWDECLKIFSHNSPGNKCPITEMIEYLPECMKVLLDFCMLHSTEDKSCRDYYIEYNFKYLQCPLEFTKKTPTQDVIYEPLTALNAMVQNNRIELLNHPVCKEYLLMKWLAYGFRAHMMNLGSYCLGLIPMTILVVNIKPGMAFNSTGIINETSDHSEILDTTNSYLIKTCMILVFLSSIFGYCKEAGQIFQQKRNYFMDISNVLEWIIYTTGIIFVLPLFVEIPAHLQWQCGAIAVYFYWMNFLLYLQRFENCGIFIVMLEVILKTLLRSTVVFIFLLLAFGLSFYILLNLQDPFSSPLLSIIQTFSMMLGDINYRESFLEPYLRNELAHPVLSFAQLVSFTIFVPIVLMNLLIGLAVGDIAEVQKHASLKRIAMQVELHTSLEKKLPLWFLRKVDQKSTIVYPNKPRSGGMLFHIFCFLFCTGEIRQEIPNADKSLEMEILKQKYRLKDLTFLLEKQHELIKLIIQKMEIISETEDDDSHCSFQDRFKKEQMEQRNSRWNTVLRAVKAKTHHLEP
# Chain of Transient receptor potential cation channel subfamily A member 1 (Rattus norvegicus, UniProt Q6RI86) (Q6RI86 whole entry E27K): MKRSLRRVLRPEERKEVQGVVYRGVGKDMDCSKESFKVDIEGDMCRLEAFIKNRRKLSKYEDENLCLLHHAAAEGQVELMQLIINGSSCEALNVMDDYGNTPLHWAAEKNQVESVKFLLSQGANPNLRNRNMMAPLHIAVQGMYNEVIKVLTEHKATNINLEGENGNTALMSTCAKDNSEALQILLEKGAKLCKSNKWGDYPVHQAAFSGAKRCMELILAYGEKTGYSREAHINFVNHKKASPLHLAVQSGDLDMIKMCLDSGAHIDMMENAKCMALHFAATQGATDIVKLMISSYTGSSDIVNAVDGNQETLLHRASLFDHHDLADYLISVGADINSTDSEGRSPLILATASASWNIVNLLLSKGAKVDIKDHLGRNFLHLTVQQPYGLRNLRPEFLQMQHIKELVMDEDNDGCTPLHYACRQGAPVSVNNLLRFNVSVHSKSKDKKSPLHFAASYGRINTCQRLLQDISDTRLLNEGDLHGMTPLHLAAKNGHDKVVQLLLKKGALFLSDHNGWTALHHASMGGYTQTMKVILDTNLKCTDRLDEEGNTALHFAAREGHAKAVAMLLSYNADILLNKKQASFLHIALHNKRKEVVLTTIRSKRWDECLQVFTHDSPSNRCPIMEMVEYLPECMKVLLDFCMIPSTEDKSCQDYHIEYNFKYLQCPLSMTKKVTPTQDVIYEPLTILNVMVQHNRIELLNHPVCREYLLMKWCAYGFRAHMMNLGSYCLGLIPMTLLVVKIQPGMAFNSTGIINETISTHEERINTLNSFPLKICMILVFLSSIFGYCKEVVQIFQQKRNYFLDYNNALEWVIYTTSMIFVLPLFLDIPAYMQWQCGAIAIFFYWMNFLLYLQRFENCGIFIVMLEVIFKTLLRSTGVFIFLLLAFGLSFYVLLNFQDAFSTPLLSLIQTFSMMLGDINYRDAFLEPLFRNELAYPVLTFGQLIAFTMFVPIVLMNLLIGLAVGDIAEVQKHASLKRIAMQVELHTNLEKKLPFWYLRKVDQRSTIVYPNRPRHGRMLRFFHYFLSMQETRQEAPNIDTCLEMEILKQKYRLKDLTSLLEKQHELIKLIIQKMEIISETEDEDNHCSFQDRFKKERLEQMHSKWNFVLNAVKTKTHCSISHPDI
IC50 [1] [µM],IC50 [2] [µM],SMILES
> 10,> 10,O=C1N=C2c3ccccc3C(=O)C2C(c2ccccc2)N1 (stereo not given)
> 10,> 10,O=C(O)c1cccc(C2NC(=S)N=C3c4ccccc4C(=O)C32)c1 (stereo not given)
> 10,> 10,COc1ccc(OC)c(C2NC(=S)N=C3c4ccccc4C(=O)C32)c1 (stereo not given)
> 10,> 10,CN(C)CCCOc1cccc(C2NC(=S)N=C3c4ccccc4C(=O)C32)c1 (stereo not given)
–,> 10,S=C1N=C(c2ccccc2)CC(c2ccccc2)N1 (stereo not given)
–,> 10,S=C1N=C2c3ccccc3CCC2C(c2ccccc2)N1 (stereo not given)
–,> 10,S=C1N=C2C(=Cc3ccccc3)CCCC2C(c2ccccc2)N1 (stereo not given)
–,> 10,S=C1N=C2CCCC2C(c2ccccc2)N1 (stereo not given)
–,> 10,S=C1N=C2CCCCC2C(c2ccccc2)N1 (stereo not given)
–,> 10,O=C1CCCC2=NC(=S)NC(c3ccccc3)C12 (stereo not given)
–,> 10,CC1=NC(=S)NC(c2ccccc2)C1C(=O)c1ccccc1 (stereo not given)
